The text below walks through data of ChEMBL document CHEMBL1144299, “Quinazolinethiones and quinazolinediones, novel inhibitors of inosine monophosphate dehydrogenase: synthesis and initial structure-activity relationships” (Bioorg Med Chem Lett, 2005).

Assay [1] addresses Inosine-5'-monophosphate dehydrogenase 2 (Homo sapiens, UniProt P12268). The assay is described as follows: In vitro inhibitory concentration against inosine-5'-monophosphate dehydrogenase.
Assay [2] in a line: In vitro concentration required to inhibit peripheral blood mononuclear cell proliferation was determined. Format: functional.
Assay [3] is described as follows: In vitro concentration required to inhibit peripheral blood mononuclear cell proliferation; Inactive. The class given is functional.
A short description of assay [4]: Percent inhibition of inosine-5'-monophosphate dehydrogenase was determined at 1 uM concentration. The class given is functional.

Regarding `COc1cc2[nH]c(=S)n(C)c(=O)c2cc1-c1cnco1`, the IC50 (commonly the midpoint of a concentration-inhibition curve) in assay [1] is 17 nM; in assay [2], 1100 nM.
The compound `COc1cc2nc(S)nc(O)c2cc1-c1cnco1` came in with an IC50 in assay [1] of 30 nM.
For the compound `COc1cc2[nH]c(=S)n(CCN3CCOCC3)c(=O)c2cc1-c1cnco1`, the half-maximal inhibitory concentration (IC50) in assay [1] was determined as 71 nM; in assay [2], 2760 nM.
For `COc1cc2[nH]c(=O)n(CCc3c[nH]cn3)c(=O)c2cc1-c1cnco1`, the concentration for half-maximal inhibition (IC50) entry in assay [3] was “Not Active”; in assay [1], 47 nM.
`COc1cc2[nH]c(=S)n(CC(C)(C)C)c(=O)c2cc1-c1cnco1`: the IC50 in assay [1] worked out at 821 nM.
Regarding `COc1cc2[nH]c(=S)n(CCc3ccncc3)c(=O)c2cc1-c1cnco1`, the IC50 stood at 13 nM in assay [1] and 780 nM in assay [2].
For `COc1cc2[nH]c(=S)n(CCc3ccccn3)c(=O)c2cc1-c1cnco1` the same measures were 91 nM and 1000 nM.
For `COc1cc2[nH]c(=O)n(CCn3ccnc3)c(=O)c2cc1-c1cnco1` the same measures were 86 nM and 2400 nM.
For `COc1cc2[nH]c(=S)n(Cc3ccncc3)c(=O)c2cc1-c1cnco1` the same measures were 100 nM and 4100 nM.
`COc1cc2[nH]c(=S)n(C(C)C)c(=O)c2cc1-c1cnco1`: the inhibition (as a rule, the percentage by which the read-out fell short of the control) in assay [4] is 27%.
Consider `COc1cc2[nH]c(=O)n(CCN3CCOCC3)c(=O)c2cc1-c1cnco1`, for which the IC50 in assay [1] came to 297 nM; in assay [2], 9130 nM.
As to `COc1cc2[nH]c(=O)n(CCc3ccncc3)c(=O)c2cc1-c1cnco1`, the figures for the IC50 in assay [1] and in assay [2] were 188 nM and 1200 nM, respectively.
With `COc1cc2[nH]c(=S)n(CCCn3ccnc3)c(=O)c2cc1-c1cnco1`, the IC50 worked out at 22 nM in assay [1] and 980 nM in assay [2].
For `COc1cc2[nH]c(=O)n(C)c(=O)c2cc1-c1cnco1`, the values for the IC50 in assay [1] and in assay [2] were 104 nM and 4000 nM, respectively.
`COc1cc2[nH]c(=S)n(-c3cccnc3)c(=O)c2cc1-c1cnco1` had an IC50 in assay [1] of 1710 nM.
